Laboratory results: ChEMBL document CHEMBL4229324, “Synthesis and antitumor activities of 1,2,3-triazines and their benzo- and heterofused derivatives” (Eur J Med Chem, 2017)
pIC50: −log10 of the molar value. ≈ marks a conversion by molar mass, not a printed value.

What was measured:
Homo sapiens = species on record: Homo sapiens; test: Antiproliferative activity against HMVEC incubated for 4 days by MTT assay; format: functional
[1] = target: Ribosomal protein S6 kinase beta-1 (Homo sapiens, UniProt P23443, T412E); test: Inhibition of N-terminal 6His-tagged human recombinant p70S6K T412E mutant (1 to 421 residues) in Sf21 insect cells using FITC-AHA-AKRRRLSSLRA-OH substrate peptide incubated for 90 mins
[2] = Acute toxicity in white mongrel mouse administered as single intraperitoneal injection; format: organism-based; conditions: in vivo, ip
MCF7 [3] = test: Antiproliferative activity against human MCF7 cells assessed as cell survival at 25 ug/ml relative to untreated control; format: functional; conditions: read-out: Survival
[4] = target: Epidermal growth factor receptor (Homo sapiens, UniProt P00533); test: Inhibition of EGFR (unknown origin)
DU-145 = test: Antiproliferative activity against human DU145 cells incubated for 4 days by MTT assay; format: functional, cell-based; conditions: DU-145, 96 h
PC-3 = test: Antiproliferative activity against human PC3 cells incubated for 4 days by MTT assay; format: functional, cell-based; conditions: PC-3, 96 h
[5] = test system: Lewis lung carcinoma cell line; test: Antiproliferative activity against mouse LL/2 cells incubated for 4 days by MTT assay; format: functional, cell-based; conditions: 96 h
B16-F10 = test: Antiproliferative activity against mouse B16F10 cells incubated for 4 days by MTT assay; format: functional, cell-based; conditions: B16-F10, 96 h
T47D = test: Antiproliferative activity against human T47D cells assessed as inhibition of cell proliferation incubated for 48 hrs by cell-titer-Glo reagent based assay; format: functional
HT-29 = test: Antiproliferative activity against human HT-29 cells assessed as inhibition of cell proliferation incubated for 48 hrs by cell-titer-Glo reagent based assay; format: functional; conditions: HT-29, 48 h
NCI-H1299 = test: Antiproliferative activity against human NCI-H1299 cells assessed as inhibition of cell proliferation incubated for 48 hrs by cell-titer-Glo reagent based assay; format: functional; conditions: NCI-H1299, 48 h
MX1 = test: Antiproliferative activity against human MX1 cells assessed as inhibition of cell proliferation incubated for 48 hrs by cell-titer-Glo reagent based assay; format: functional; conditions: MX1, 48 h
MDA-MB-435 = test: Antiproliferative activity against human MDA-MB-435 cells assessed as inhibition of cell proliferation incubated for 48 hrs by cell-titer-Glo reagent based assay; format: functional; conditions: MDA-MB-435, 48 h
Caspase = test: Activation of caspase cascade in human T47D cells using N-(Ac-DEVD)-N'-ethoxycarbonyl-R110 fluorogenic substrate incubated for 48 hrs by fluorescent plate reader based assay; format: cell-based
[6] = Inhibition of binding of vascular endothelial growth factor to heparin pre-incubated with VEGF prior to application to plates for 45 mins by ELISA
[7] = Inhibition of binding of beta-FGF to heparin pre-incubated with beta-FGF prior to application to plate for 45 mins by ELISA
MCF7 [8] = test: Cytotoxic activity against human MCF7 cells; format: functional, cell-based
[9] = target: T1, Tyrosine-protein kinase JAK3 (Homo sapiens, UniProt P52333); test: Inhibition of JAK3 (unknown origin)
T1 sequence (P52333 whole entry): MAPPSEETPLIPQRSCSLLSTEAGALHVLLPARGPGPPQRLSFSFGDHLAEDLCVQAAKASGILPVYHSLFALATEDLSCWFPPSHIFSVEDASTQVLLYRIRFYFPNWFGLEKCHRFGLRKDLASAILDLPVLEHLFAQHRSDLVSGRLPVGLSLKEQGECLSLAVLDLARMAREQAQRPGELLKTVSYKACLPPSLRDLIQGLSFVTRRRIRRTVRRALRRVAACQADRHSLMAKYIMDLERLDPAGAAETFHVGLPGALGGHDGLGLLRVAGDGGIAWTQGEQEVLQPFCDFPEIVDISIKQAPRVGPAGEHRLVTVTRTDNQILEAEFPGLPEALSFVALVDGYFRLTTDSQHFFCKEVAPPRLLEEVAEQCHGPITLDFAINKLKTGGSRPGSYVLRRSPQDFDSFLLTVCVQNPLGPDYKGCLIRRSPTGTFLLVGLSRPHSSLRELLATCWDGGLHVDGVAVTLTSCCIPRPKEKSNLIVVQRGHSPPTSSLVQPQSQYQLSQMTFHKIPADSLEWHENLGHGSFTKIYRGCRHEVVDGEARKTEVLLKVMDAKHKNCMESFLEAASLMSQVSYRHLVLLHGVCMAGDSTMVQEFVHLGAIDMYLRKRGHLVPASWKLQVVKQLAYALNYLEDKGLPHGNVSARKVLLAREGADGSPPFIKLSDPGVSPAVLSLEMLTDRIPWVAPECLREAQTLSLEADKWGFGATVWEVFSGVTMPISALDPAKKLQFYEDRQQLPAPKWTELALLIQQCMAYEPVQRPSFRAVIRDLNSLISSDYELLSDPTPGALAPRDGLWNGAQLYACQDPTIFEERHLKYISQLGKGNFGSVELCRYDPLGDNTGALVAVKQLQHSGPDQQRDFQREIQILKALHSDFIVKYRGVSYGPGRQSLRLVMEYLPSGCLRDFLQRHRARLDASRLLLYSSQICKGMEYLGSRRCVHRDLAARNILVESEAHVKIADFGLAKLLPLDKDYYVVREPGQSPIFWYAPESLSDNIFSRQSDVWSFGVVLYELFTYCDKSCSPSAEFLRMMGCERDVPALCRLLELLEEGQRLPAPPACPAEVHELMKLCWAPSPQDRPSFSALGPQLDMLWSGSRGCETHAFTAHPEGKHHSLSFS

Ribosomal protein S6 kinase beta-1, sequence (P23443 whole entry T412E, the tested form may be a part): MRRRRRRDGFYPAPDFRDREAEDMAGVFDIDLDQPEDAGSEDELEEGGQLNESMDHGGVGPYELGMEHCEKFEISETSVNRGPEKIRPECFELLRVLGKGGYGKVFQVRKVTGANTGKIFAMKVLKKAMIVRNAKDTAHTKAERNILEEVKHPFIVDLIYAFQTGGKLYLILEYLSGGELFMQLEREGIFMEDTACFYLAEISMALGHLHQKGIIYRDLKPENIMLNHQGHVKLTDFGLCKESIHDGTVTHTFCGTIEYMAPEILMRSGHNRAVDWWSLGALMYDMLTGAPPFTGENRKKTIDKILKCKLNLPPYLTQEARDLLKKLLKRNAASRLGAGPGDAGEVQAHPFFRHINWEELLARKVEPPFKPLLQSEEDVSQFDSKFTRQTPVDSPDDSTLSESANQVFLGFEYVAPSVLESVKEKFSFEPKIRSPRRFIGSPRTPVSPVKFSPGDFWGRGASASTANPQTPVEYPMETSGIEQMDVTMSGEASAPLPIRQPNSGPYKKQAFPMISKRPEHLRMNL
Epidermal growth factor receptor, sequence (P00533 whole entry): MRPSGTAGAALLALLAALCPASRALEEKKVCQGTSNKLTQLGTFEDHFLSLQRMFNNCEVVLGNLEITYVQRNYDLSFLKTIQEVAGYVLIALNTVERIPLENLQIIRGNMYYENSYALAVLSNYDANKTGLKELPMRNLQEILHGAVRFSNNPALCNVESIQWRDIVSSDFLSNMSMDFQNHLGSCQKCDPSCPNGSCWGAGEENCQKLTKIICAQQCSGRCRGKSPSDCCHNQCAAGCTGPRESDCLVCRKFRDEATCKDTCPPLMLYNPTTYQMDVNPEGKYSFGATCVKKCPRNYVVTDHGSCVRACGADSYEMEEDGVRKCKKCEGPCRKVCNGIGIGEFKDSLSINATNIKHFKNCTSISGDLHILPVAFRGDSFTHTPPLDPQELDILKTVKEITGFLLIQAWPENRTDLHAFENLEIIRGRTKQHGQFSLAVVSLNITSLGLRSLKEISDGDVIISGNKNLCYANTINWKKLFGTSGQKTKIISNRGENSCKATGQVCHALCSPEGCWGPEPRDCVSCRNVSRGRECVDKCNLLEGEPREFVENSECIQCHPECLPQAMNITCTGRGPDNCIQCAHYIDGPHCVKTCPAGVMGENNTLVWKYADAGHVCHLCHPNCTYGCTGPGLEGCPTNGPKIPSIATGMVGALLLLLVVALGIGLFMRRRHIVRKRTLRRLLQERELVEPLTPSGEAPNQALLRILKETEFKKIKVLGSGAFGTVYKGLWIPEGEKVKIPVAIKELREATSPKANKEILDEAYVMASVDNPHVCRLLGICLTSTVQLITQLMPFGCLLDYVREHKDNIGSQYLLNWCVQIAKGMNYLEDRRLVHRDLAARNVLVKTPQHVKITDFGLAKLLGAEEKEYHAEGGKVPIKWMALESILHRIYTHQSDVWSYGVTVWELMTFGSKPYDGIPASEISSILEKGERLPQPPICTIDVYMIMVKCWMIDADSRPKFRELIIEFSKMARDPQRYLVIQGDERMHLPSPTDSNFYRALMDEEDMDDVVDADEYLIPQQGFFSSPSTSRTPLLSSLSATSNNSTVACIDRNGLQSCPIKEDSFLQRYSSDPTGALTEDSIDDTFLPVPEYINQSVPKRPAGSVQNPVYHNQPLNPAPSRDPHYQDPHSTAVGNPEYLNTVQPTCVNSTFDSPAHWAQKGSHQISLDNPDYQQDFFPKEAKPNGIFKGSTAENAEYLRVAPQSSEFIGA

pIC50 [1] | SMILES | GI50 (Homo sapiens) | further results
– | COc1cc2c(Nc3ccc(Cl)cc3)nnnc2cc1OCCCCl | 18.6 µM | –
> 7.60 | CN(C)C[C@@H](Nc1nnnc2c(C(N)=O)cccc12)c1ccc(Cl)c(Cl)c1 | – | –
– | CCCCCOc1cc2nnnc(Nc3cccc(OC(F)(F)F)c3)c2cc1OC | 42.6 µM | –
– | Clc1nnnc2c1sc1nc(N3CCOCC3)c3c(c12)CCCC3 | – | MTD [2]: 2000 mg/kg
– | C=CCNc1nnnc2c1sc1nc(N3CCOCC3)c3c(c12)CC(C)(C)OC3 | – | MTD [2]: 2000 mg/kg
6.30 to 7.00 | NC(=O)c1cccc2c(NCc3cccc(C(F)(F)F)c3)nnnc12 | – | –
– | CCOc1cc2nnnc(Nc3ccc(C)cc3)c2cc1OC | 42.6 µM | –
– | COc1cc2c(Nc3ccc(Cl)c(Cl)c3)nnnc2cc1OCCCCl | 11 µM | –
– | CC1(C)Cc2c(c(N3CCOCC3)nc3sc4c(N(Cc5ccccc5)Cc5ccccc5)nnnc4c23)CO1 | – | MTD [2]: 2000 mg/kg
– | COc1cc2c(Nc3cc(Cl)cc(Cl)c3)nnnc2cc1OCCCCl | 28.8 µM | –
– | Clc1ccc(Nc2nnnc3ccccc23)cc1 | > 80 µM | –
7.00 to 7.60 | NC(=O)c1cccc2c(NCc3ccc(C(F)(F)F)cc3)nnnc12 | – | –
– | CCN(CC)CCNc1nnnc2c1sc1nc(N3CCOCC3)c3c(c12)CC(C)(C)OC3 | – | MTD [2]: 2000 mg/kg
– | COc1cc2c(Nc3cccc(OC(F)(F)F)c3)nnnc2cc1OCCCCl | 24.9 µM | –
– | Oc1cccc(Nc2nnnc3sc4c(c23)CCC4)c1 | – | viability at 25 µg/mL (MCF7 [3]): 12%; pIC50 [4]: 4.28
– | CCCCCOc1cc2nnnc(Nc3ccc(OC(F)(F)F)cc3)c2cc1OC | 38 µM | –
> 7.60 | NC(=O)c1cccc2c(NCc3ccc(Cl)c(Cl)c3)nnnc12 | – | –
> 7.60 | NC(=O)c1cccc2c(NCc3ccc(Cl)c(C(F)(F)F)c3)nnnc12 | – | –
– | CC1(C)Cc2c(c(N3CCOCC3)nc3sc4c(NNc5ccccc5)nnnc4c23)CO1 | – | MTD [2]: 2000 mg/kg

pIC50 [1] | SMILES | GI50 (Homo sapiens) | further results
< 6.00 | NC(=O)c1cccc2c(NCc3cccnc3)nnnc12 | – | –
– | CC1(C)Cc2c(c(N3CCOCC3)nc3sc4c(NN)nnnc4c23)CO1 | – | MTD [2]: 2000 mg/kg
– | COc1cc2c(Nc3ccc(C)cc3)nnnc2cc1OCCCCl | 17.1 µM | –
– | COc1cc2c(Nc3ccc(F)c(C(F)(F)F)c3)nnnc2cc1OCCCCl | 15.2 µM | –
7.00 to 7.60 | COc1cc([C@@H](CN(C)C)Nc2nnnc3c(C(N)=O)cccc23)ccc1Cl | – | –
6.00 to 6.30 | NC(=O)c1cccc2c(NCc3cccc(F)c3)nnnc12 | – | –
6.00 to 6.30 | NC(=O)c1cccc2c(NCc3ccccc3)nnnc12 | – | –
– | COc1cc2c(Nc3ccc(OC(F)(F)F)cc3)nnnc2cc1OCCCCl | 23.2 µM | –
– | CCCCCCNc1nnnc2c1sc1nc(N3CCOCC3)c3c(c12)CC(C)(C)OC3 | – | MTD [2]: 2000 mg/kg
7.00 to 7.60 | CN(C)C[C@@H](Nc1nnnc2c(C(N)=O)cccc12)c1ccc(Cl)c(C#N)c1 | – | –
– | COc1cc2c(Nc3ccc(F)c(Cl)c3)nnnc2cc1OCCCCl | 7.98 µM | pIC50 (DU-145): 5.16 to 5.42; pIC50 (PC-3): 5.16 to 5.42; pIC50 [5]: 5.16 to 5.42; pIC50 (B16-F10): 5.16 to 5.42
– | COc1cc2c(Nc3cccc(C(F)(F)F)c3)nnnc2cc1OCCCCl | 21.4 µM | –
– | CCOc1cc2nnnc(Nc3ccc(Cl)cc3)c2cc1OC | 26.5 µM | –
< 6.00 | NC(=O)c1cccc2c(NCc3cc(C(F)(F)F)ccn3)nnnc12 | – | –
– | COc1ccc(N(C)c2nnnc3ccccc23)cc1 | – | pIC50 (T47D): 7.30 to 8.15; pIC50 (HT-29): 7.30 to 8.15; pIC50 (NCI-H1299): 7.30 to 8.15; pIC50 (MX1): 7.30 to 8.15; pIC50 (MDA-MB-435): 7.30 to 8.15; EC50 (Caspase): 0.016 µM
– | CC(C)(CC(=O)On1nnc2ccccc2c1=O)CN1C(=O)c2cc3oc(-c4ccc(Cl)cc4)cc3n2C1=S | – | pIC50 [6]: 6.59; pIC50 [7]: 6.80
> 7.60 | CN(C)C[C@@H](Nc1nnnc2c(C(N)=O)cccc12)c1ccc(Cl)c(C(F)(F)F)c1 | – | –
– | c1coc(CNc2nnnc3c2sc2nc(N4CCOCC4)c4c(c23)CCCC4)c1 | – | MTD [2]: 2000 mg/kg
> 7.60 | NC(=O)c1cccc2c(N[C@H](CN3CCC3)c3ccc(Cl)c(C(F)(F)F)c3)nnnc12 | – | –

pIC50 [1] | SMILES | GI50 (Homo sapiens) | further results
– | CC(C)CCNc1nnnc2c1sc1nc(N3CCOCC3)c3c(c12)CCCC3 | – | MTD [2]: 2000 mg/kg
> 7.60 | COc1cc([C@@H](CN2CCC2)Nc2nnnc3c(C(N)=O)cccc23)ccc1Cl | – | –
– | O=c1[nH]nnc2c1C1C(=Cc3ccccc31)S2 (stereo not drawn) | – | IC50 (MCF7 [8]): 6 µg/mL (≈ 24.9 µM)
– | CC(C)CCNc1nnnc2c1sc1nc(N3CCOCC3)c3c(c12)CC(C)(C)OC3 | – | MTD [2]: 2000 mg/kg
– | NNc1nnnc2c1sc1nc(N3CCOCC3)c3c(c12)CCCC3 | – | MTD [2]: 2000 mg/kg
– | c1ccc(NNc2nnnc3c2sc2nc(N4CCOCC4)c4c(c23)CCCC4)cc1 | – | MTD [2]: 2000 mg/kg
– | CCOc1cc2nnnc(Nc3ccc(F)c(Cl)c3)c2cc1OC | 38.8 µM | –
> 7.60 | NC(=O)c1cccc2c(N[C@H](CN3CCC3)c3ccc(Cl)c(Cl)c3)nnnc12 | – | –
> 7.60 | NC(=O)c1cccc2c(N[C@H](CN3CCC3)c3ccc(F)c(C(F)(F)F)c3)nnnc12 | – | –
> 7.60 | N#Cc1cc([C@@H](CN2CCC2)Nc2nnnc3c(C(N)=O)cccc23)ccc1Cl | – | –
– | COc1cc2c(Nc3ccccc3)nnnc2cc1OCCCCl | > 80 µM | –
– | CCCCCOc1cc2nnnc(Nc3ccc(Cl)cc3)c2cc1OC | 25.4 µM | –
< 6.00 | NC(=O)c1cccc2c(NCc3ccccn3)nnnc12 | – | –
– | CC1(C)Cc2c(c(N3CCOCC3)nc3sc4c(N5CCNCC5)nnnc4c23)CO1 | – | MTD [2]: 2000 mg/kg
– | NC(=O)c1c[nH]c2nnnc(O)c12 | – | pIC50 [9]: > 5.00
– | CC1(C)Cc2c(c(N3CCOCC3)nc3sc4c(Cl)nnnc4c23)CO1 | – | MTD [2]: 2000 mg/kg
– | Oc1ccc(Nc2nnnc3sc4c(c23)CCC4)cc1 | – | viability at 25 µg/mL (MCF7 [3]): 13%; pIC50 [4]: 4.41
– | COc1cc2c(Nc3ccc(F)cc3)nnnc2cc1OCCCCl | 23.1 µM | –
